Assay results: PubChem BioAssay (NCI)
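Compound exposure: 48 hours, 5 concentrations, 96-well plates. GI50 = concentration required for 50% inhibition of growth. The concentration for full growth arrest is given as TGI.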

Assays:
Assay in all cases: NCI-60 cell line screen, 48 h
ACHN renal = system: ACHN renal
DLD-1 colon = system: DLD-1 colon
HCT-116 colon = system: HCT-116 colon
HOP-62 NSCLC = system: HOP-62 NSCLC
HT29 colon = system: HT29 colon
K-562 leukemia = system: K-562 leukemia
NCI-H522 lung = system: NCI-H522 lung
OVCAR-8 ovarian = system: OVCAR-8 ovarian
SF-268 CNS = system: SF-268 CNS
SK-MEL-2 melanoma = system: SK-MEL-2 melanoma
SW-620 colon = system: SW-620 colon
UACC-257 melanoma = system: UACC-257 melanoma
SNB-75 CNS = system: SNB-75 CNS

SMILES	TGI (ACHN renal) [µM]	TGI (DLD-1 colon) [µM]	TGI (HCT-116 colon) [µM]	TGI (HOP-62 NSCLC) [µM]	TGI (HT29 colon) [µM]	TGI (K-562 leukemia) [µM]	TGI (NCI-H522 lung) [µM]	TGI (OVCAR-8 ovarian) [µM]	TGI (SF-268 CNS) [µM]	TGI (SK-MEL-2 melanoma) [µM]	TGI (SW-620 colon) [µM]	TGI (UACC-257 melanoma) [µM]	TGI (SNB-75 CNS) [µM]	GI50 (HOP-62 NSCLC) [nM]	GI50 (HT29 colon) [nM]	GI50 (K-562 leukemia) [nM]	GI50 (NCI-H522 lung) [nM]	GI50 (OVCAR-8 ovarian) [nM]	GI50 (SW-620 colon) [nM]
CCOC(C)OC1CC(n2cc(C)c(=O)[nH]c2=O)OC1CO (configuration not stated)	> 100	> 100	> 100	> 100	> 100	> 100	> 100	> 100	> 100	> 100	> 100	> 100							
CCOC(=O)Cn1c(=O)c(C)cn(COCCO)c1=O	> 100			> 100	> 100	> 100	> 100	> 100	> 100	> 100	> 100	> 100	> 100						
CN1CN(C(=O)N2CN(C)C(=O)N(C)C2)CN(C)C1=O	> 100	> 100	> 100	> 100	> 100	> 100	> 100	> 100	> 100	> 100	> 100	> 100	> 100						
CC1OC(=O)C(C(C)C)NC(=O)C(C(C)C)OC(=O)C(C(C)C)NC(=O)C(C)OC(=O)C(C(C)C)NC(=O)C(C(C)C)OC(=O)C(C(C)C)NC(=O)C(C)OC(=O)C(C(C)C)NC(=O)C(C(C)C)OC(=O)C(C(C)C)NC1=O (configuration not stated)	< 0.0001	2.05	2.91	0.0144	3.4	6.36	< 0.0001	3.46	5.09	0.167	4.85	0.145	0.00378	< 0.1	< 0.1	< 0.1	< 0.1	< 0.1	< 0.1
CCOC(=O)C1=C(C)N(C2OC(COC(=O)c3ccccc3)C(OC(=O)c3ccccc3)C2OC(=O)c2ccccc2)C(=S)NC1c1ccccc1 (configuration not stated)	> 100	> 100	> 100	> 100	> 100	91.7	66.1	> 100	> 100	> 100	> 100	> 100	> 100						
CCN(CC)CCO[Si](OCCN(CC)CC)(OCCN(CC)CC)OCCN(CC)CC		> 100			> 100			> 100		> 100	> 100	> 100	> 100						
O=C(CCC1CCCCN1)Nc1ccc2c(c1)C(=O)c1ccc(NC(=O)CCN3CCCCC3)cc1C2=O (configuration not stated)		6.37	4.96	27.9	10.8	4.97		9.73	25.4			2.94	16.4						
CN/N=C(\C(=O)Nc1ccc(C)c(C)c1)C(C(=O)OC)c1nc2ccc([N+](=O)[O-])cc2[nH]c1=O (configuration not stated)	> 100	> 100	> 100	> 100	> 100	> 100	70.9	> 100	> 100	> 100	> 100	> 100	> 100						
